Assay results published in patent US11732007B2, “Therapeutic compounds and methods” (The Regents of the University of California, priority 2020, dated 2023).

Experiments:
MMP-13 = biological target: T1, MMP-13 (Homo sapiens, UniProt P45452); assay: SensoLyte 520 fluorimetric selectivity assay, MMP-13; assay type: biochemical; conditions: agents tested at 25 nM or at 4 nM
T1 construct: purchased AnaSpec AS-72257
Description: (§1) FIG. 2. […] For each indicated enzyme, agents were tested at 25 nM or at 4 nM and percent inhibition was measured using the catalytic domains of the respective enzyme and the SensoLyte® 520 Fluorimetric Assay Kit (Anaspec).
(§2) Enzymatic assays to profile the inhibitory effects of all the compounds on hMMP-12, and against a panel of 5 closely related MMPs (MMP-1, MMP-3, MMP-9, MMP-13, and MMP-14) were performed using the SensoLyte® 520 Fluorimetric Assay Kit (AnaSpec) for each MMPs. Assay kit for MMP-12 Cat. #AS-71157, MMP-1 Cat. #AS-71150, MMP-3 Cat. #AS-71152, MMP-9 Cat. #AS-71155, MMP-13 Cat. #AS-71156, and MMP-14 Cat. #AS-72025. The assay was performed according to their protocols. Briefly, 10 ng of each MMPs were incubated on a black flat-bottom 96-well plate (Cat. #9502867) at RT for 15 minutes in absence or in presence of different concentration of each compound in a total volume of 50 μL. After 15 minutes, 50 μL of each substrate solution were added. The reagents were mixed together by shaking the plate gently for 30 sec. Immediately after the fluorescence was measured using the VICTOR X5 microplate reader (PerkinElmer) every 3 min for 60 min. All the measurement were performed in duplicates. The IC50 values were calculated from dose-response curves using GraphPad Prism 7.

[1] = Solubility in dosing formulation; assay type: physicochemical; conditions: 10% DMSO, 40% PEG400, 10% (2-hydroxypropyl)-Beta-cyclodextrin in PBS
Description: (§3) Compound 25 was administered i.p. (30 mg/kg) to 5 Balb-C mice. Retrorbital bleeding was used to collect blood samples at times 30 min, 1 h, 2 h, 4 h, 8 h, and 24 h and the samples analyzed for compound 25 plasma concentration via extraction followed by LC/MS and compared to a standard calibration curve prepared with purified agent. Compound 25 was soluble in 10% DMSO, 40% PEG400, and 10% (2-hydroxypropyl)-Beta-cyclodextrin in PBS. Mice weight varied between 22 g and 26 g, each receiving approximately 200 μL (weight adjusted to administer 30 mg/Kg of compound 25) of formulated agent. The experiments were conducted at the University of California San Diego in vivo pharmacology core facility, according to a UCSD Institutional Animal Care and Use Committee (IACUC) approved protocol.

MMP-1 = biological target: T2, MMP-1 (Homo sapiens, UniProt P03956); assay: SensoLyte 520 fluorimetric selectivity assay, MMP-1; assay type: biochemical; conditions: agents tested at 25 nM or at 4 nM
T2 construct: purchased AnaSpec AS-55575-1
T2 sequence (P03956 100-269 limits assumed): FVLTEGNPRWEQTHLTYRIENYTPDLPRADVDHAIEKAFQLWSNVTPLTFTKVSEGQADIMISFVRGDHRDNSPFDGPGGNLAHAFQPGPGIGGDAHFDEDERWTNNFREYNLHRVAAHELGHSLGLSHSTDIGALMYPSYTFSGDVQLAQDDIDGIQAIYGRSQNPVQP
Description: as §1, §2

[2] = system: murine model of elastase-induced emphysema; assay: Murine model of elastase-induced emphysema, mean linear intercept analysis; assay type: in vivo, C57BL/6 mice; conditions: i.p. once daily for 7 days from day 2 after PPE, day 21
Description: C57BL/6 mice were purchased from Jackson Laboratories (Bar Harbor, Me.) and maintained in a pathogen-free vivarium at room temperature with 12-hour light/dark cycles. All mice were 6-8 weeks and both male and female mice were used for the experiment. All animal-use and euthanasia protocols were approved by the UC Riverside Institutional Animal Care and Use Committee (IACUC).
C57BL/6 mice were given a single intranasal instillation with 50 μl of saline or 0.9 U porcine pancreas elastase (Sigma-Aldrich, St. Louis, Mo.) diluted in phosphate buffered saline (IX PBS). Two days following the instillation, mice were treated with 200 μl of vehicle control, MMP-408, compound 25, or compound 26 via intraperitoneal injection. Mice were continually given treatment once a day for 7 consecutive days. Twenty-one days following the initial intranasal instillation, mice were sacrificed. Bronchoalveolar lavage fluid (BALF) was collected by making an incision in the trachea and inserting a cannula with syringe (BD Biosciences, CA), then washing with 1 mL of cold PBS three times. BALF was centrifuged at 1200 RPM for 5 minutes, then cell pellets were combined and resuspended in 200 μl of PBS to be used in cell counts and cell differential analysis. The lungs were isolated, slowly filled with 1 mL of 10% formalin then hung in formalin overnight for fixation. The following day, lungs were moved into 70% ethanol and stored at 4° C. until paraffin-embedding.
Mouse lungs were fixed in formalin and paraffin-embedded, then sectioned and stained in hematoxylin and eosin by the University of California Irvine Department of Pathology Experimental Tissue Resource Core Facility. The lungs were imaged on a Revolve light microscope (La Jolla, Calif.) at 10× magnification. MLI measurements were calculated using an established indirect method on ImageJ software. Briefly, alveolar walls/intersections were counted along a line of known length, then length was divided by the number of intersections to calculate MLI. This process was repeated for a total of five MLI measurements per image, with there being four images per mouse lung. The average MLI measurement for each lung was calculated and statistically analyzed using GraphPad Prism software (San Diego, Calif.).

hMMP-12 = biological target: T3, hMMP-12 (Homo sapiens, UniProt P39900); assay: SensoLyte 520 MMP-12 fluorimetric enzyme inhibition assay; assay type: biochemical; conditions: for IC50: catalytic domain, tested side by side
T3 construct: The catalytic domain (Gly106-Gly263) of human macrophage metalloelastase (hMMP-12); made in house; host or cells: E. coli BL21 Codon Plus (pET21 vector, NdeI/BamHI)
T3 sequence (P39900 106-263): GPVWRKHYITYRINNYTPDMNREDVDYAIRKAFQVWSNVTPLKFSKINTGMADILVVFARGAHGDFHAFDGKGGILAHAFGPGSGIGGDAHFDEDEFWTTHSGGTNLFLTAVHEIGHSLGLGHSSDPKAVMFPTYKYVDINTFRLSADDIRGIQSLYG

MMP-3 = biological target: T4, MMP-3 (Homo sapiens, UniProt P08254); assay: SensoLyte 520 fluorimetric selectivity assay, MMP-3; assay type: biochemical; conditions: agents tested at 25 nM or at 4 nM
T4 construct: purchased AnaSpec 72006
T4 sequence (P08254 100-272 limits assumed): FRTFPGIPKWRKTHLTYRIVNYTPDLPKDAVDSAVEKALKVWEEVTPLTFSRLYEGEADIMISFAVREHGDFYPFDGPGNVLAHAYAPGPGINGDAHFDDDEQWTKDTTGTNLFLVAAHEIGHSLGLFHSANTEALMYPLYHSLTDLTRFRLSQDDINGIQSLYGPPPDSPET
Description: as §1, §2

MMP-9 = biological target: T5, MMP-9 (Homo sapiens, UniProt P14780); assay: SensoLyte 520 fluorimetric selectivity assay, MMP-9; assay type: biochemical; conditions: agents tested at 25 nM or at 4 nM
T5 construct: purchased AnaSpec AS-55576-1
T5 sequence (P14780 107-444 limits assumed): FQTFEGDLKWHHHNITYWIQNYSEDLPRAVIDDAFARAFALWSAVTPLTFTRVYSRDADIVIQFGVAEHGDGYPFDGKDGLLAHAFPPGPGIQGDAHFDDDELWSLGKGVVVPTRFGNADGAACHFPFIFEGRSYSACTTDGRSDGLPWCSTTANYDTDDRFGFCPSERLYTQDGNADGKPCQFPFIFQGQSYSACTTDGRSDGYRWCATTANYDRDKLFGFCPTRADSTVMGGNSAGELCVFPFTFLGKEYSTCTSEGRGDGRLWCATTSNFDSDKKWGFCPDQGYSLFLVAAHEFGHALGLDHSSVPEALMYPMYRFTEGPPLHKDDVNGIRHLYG
Description: as §1, §2

[3] = Preliminary pharmacokinetic study in mice; assay type: in vivo, Balb-C mice
Description: as §3

MMP-14 = biological target: T6, MMP-14 (Homo sapiens, UniProt P50281); assay: SensoLyte 520 fluorimetric selectivity assay, MMP-14; assay type: biochemical; conditions: agents tested at 25 nM or at 4 nM
T6 construct: purchased AnaSpec AS-72068
Description: as §1, §2

[4] = 30 mg/kg intraperitoneally, mice

SMILES	inhibition of MMP-13 (MMP-13)	solubility in formulation [1]	inhibition of MMP-1 (MMP-1)	MLI measurements compared to saline (no PPE)-treated mice [2]	emphysema-like pathology compared to PPE+vehicle-treated mice [2]	mode of MMP-12 inhibition (hMMP-12)	IC50 (hMMP-12) [nM]	inhibition of MMP-3 (MMP-3)	inhibition of MMP-9 (MMP-9)	peak plasma drug concentration [3, 4] [ng/mL]	peak plasma drug concentration (molar) [3, 4] [nM]	peak plasma concentration relative to in vitro IC90 ([3]; mouse, in vivo) [times]	inhibition of MMP-14 (MMP-14)
COc1ccc(CC[C@@H](NC(=O)[C@H](CCCc2ccccc2)NC(=O)CN2CCOCC2)C(=O)N[C@H](Cc2ccc(C)cc2)C(=O)NO)cc1 [Compound 25]	did not display significant inhibition	soluble	did not display significant inhibition	no significant differences	significant decrease	competitive inhibitors	~4	appreciable inhibition	did not display significant inhibition	~400	~580	> 20	did not display significant inhibition
COc1ccc(CCC[C@H](NC(=O)CN2CCOCC2)C(=O)N[C@H](CCc2ccc(OC)cc2)C(=O)N[C@H](Cc2ccc(C)cc2)C(=O)NO)cc1 [Compound 26]	did not display significant inhibition		did not display significant inhibition	no significant differences	significant decrease	competitive inhibitors	~4	appreciable inhibition	did not display significant inhibition				did not display significant inhibition
CNC(=O)[C@H](Cc1c[nH]c2ccccc12)NC(=O)[C@@H](CC(=O)NO)CC(C)C [GM6001, reference compound]							~2.5	appreciable inhibition					
COC(=O)Nc1ccc2oc3cc(S(=O)(=O)N[C@H](C(=O)O)C(C)C)ccc3c2c1 [MMP408, reference compound]				no significant differences	significant decrease								
